Data as given in PMC7343282, “Tissue Distribution of Several Series of Cationic Surfactants in Rainbow Trout (Oncorhynchus mykiss) Following Exposure via Water” (Environmental Science & Technology, 2020).

Tests used:
[1] = tested on: rainbow trout (Oncorhynchus mykiss); assay: Tissue concentrations in rainbow trout after 7 d exposure via water (two mixtures); type: in vivo
Method: The study was conducted with rainbow trout (Oncorhynchus mykiss) weighing between 98 and 165 g. The fish were purchased from Nordic trout Sweden AB and held in the aquaria facility prior to the experiment in February 2018. Ethical approval for the experiments was obtained from Stockholms djurförsöksetiska nämnd (decision 9967-2017). The experiments were conducted in 300 L fiberglass aquaria with a water renewal rate of 1.3 L min^–1 (MIX 1) and 1.45 L min^–1 (MIX 2). The water temperature was 10 °C and the pH 7.5. The water hardness was estimated to be 1.1 mM Ca^2+ based on information from the water supplier. The aquaria water was circulated through a filter of polyester wool at 800–1200 L h^–1 with an Eheim 2273 Pro 4+ pump. The outflow from the filter pump was placed above the water surface, providing for aeration. The lighting was dim and programmed on a 12 h light/12 h dark cycle. The fish were fed fish food pellets supplied by the fish farm at 1.0% of their body weight per day.
A solution of the test chemical mixture in methanol was infused continuously (3.5 and 3.8 μL min^–1 for MIX 1 and MIX 2, respectively) into the water inflow using a syringe pump. The intended concentrations of the chemicals in water ranged from 2.5 to 50 μg L^–1 (Table 1). They were selected with the help of modeled estimates of the BCF that were based on reported and extrapolated membrane water partition coefficients[7] and biotransformation rate constants predicted with quantitative structure activity relationships (QSARs)[24],[25] to parameterize the BIONIC model.[26] Based on these estimates, we selected an exposure concentration which would result in concentrations in fish that were clearly above the limit of quantification (LOQ) of the analytical method, while trying to keep the quantifiable exposure concentration as low as possible to minimize the risk of toxic effects and micelle formation (see comparison of intended concentrations with available toxicological data in Table S4).
The surface of the fish posterior of the gills was rinsed with 100% methanol to remove test chemical residues adsorbed to the outer surface of the skin and absorbed in the skin mucus. […] The fish were dissected and the liver, the kidney, the gills, and the remaining contents of the abdominal cavity were taken and weighed. Skin and muscle samples were prepared from the upper dorsal region on semi-frozen fish after the methanol rinse had removed the mucus. The main part of the subcutaneous fat tissue was included in the muscle samples rather than in the skin samples. All samples were stored frozen at −20 °C until further analysis.
For 6 fish from each aquarium and 3 control fish, samples of muscle, skin, liver, and gills were homogenized in a bullet blender (muscle and liver) (MiniG, SPEXsamplePrep) or in a cryo-mill (skin and gill) (Mixer mill cryomill, Retsch GmbH). A sub-sample of 0.5–1.2 g of the homogenate was extracted twice in methanol (4 mL, 50 °C, ultra-sound, 60 min), employing centrifugation at 4000 rpm for phase separation. Further information on the extraction efficiency of this method can be found in the Supporting Information (Table S5 and accompanying text). Isotope labeled standards of Q10 (D21), Q14 (D29), and P16 (D33) were added to a portion of the extract corresponding to 12–75 mg of the sample. The extract volume was adjusted to 3 mL with methanol and then cleaned up on a weak cationic exchange SPE column (WCX, 60 mg, 30 μm particle size, waters). Solvent elution was performed by gravity flow. The column was conditioned with 2 mL of methanol, followed by 2 mL of Milli-Q water adjusted to pH 7 with ammonium hydroxide to activate the ion exchange. The sample extract was loaded onto the column, and it was subsequently rinsed with 20 mL of methanol.

[2] = tested on: rainbow trout (Oncorhynchus mykiss); assay: Surface area-normalized mucus-water and gill-water distribution coefficients; settings: for Gill-water distribution coefficient (DG-W): from average concentrations in gills and water, calculated gill surface; for Mucus-water distribution coefficient (DMuc-W): from average concentrations in mucus and water
Method: For each mixture, the syringe pump was started in an aquarium containing no fish. After 16 h, to allow the concentrations to stabilize, 12 rainbow trout were added. After 7 d of exposure, the fish in the exposure aquaria as well as several unexposed (control) fish were sacrificed. Following stunning, blood was collected with a heparinized syringe from the caudal vein into a 2 mL Eppendorf tube. The fish were weighed and photographed, and the length was measured. The outer surface area of the fish was estimated from the fish weight according to O’Shea et al.[27] [drawing 1] 1
The gill surface area was estimated from the fish weight according to the equation specific for O. mykiss from a report by Hughes,[28] taken from ref ([29]) [drawing 2] 2
Because the mass of extracted mucus was not determined, the concentrations in mucus were normalized to the estimated fish’s total surface area (eq 1) excluding the head, which was not rinsed.
Surface area-normalized gill–water distribution coefficients (DG–W) were calculated from the average concentrations measured in gills and water, and a calculated gill surface based on rainbow trout specific scaling factors (eq 2). […] Unlike the skin, the gills were not rinsed with methanol, so the gill samples included gill mucus.

[3] = tested on: rainbow trout (Oncorhynchus mykiss); assay: Apparent bioconcentration factor at end of 7-day exposure; type: in vivo; settings: end of 7-day exposure, body burden including mucus
Method: Apparent BCFs (BCFapp) at the end of the 7-day exposure were calculated by dividing the surfactant body burden (including mucus) by the fish mass, and dividing this by the average measured concentration in water samples taken during the exposure phase. The BCFapp values ranged from 0.1 to 1260 (Table S18). Given the short exposure period, it is possible that the fish in this study had not approached steady state, in particular with respect to the distribution between water and internal tissues and between water and skin, and that the steady-state BCFs are higher. […] We note that some improvements in the methodology would be helpful, particularly with respect to the stability of the aqueous exposure concentration of the longest chain surfactants. Working with mixtures of analogue cationic surfactants allowed for consistent evaluation of differences in accumulation trends due to structural features.

[4] = Membrane-water partition/distribution coefficient; settings: extrapolated from data of Timmer and Droge (2017)
[5] = ref Timmer and Droge (2017); cited from earlier work
[6] = rainbow trout (Oncorhynchus mykiss), in vivo, 7 d
[7] = rainbow trout (Oncorhynchus mykiss), in vivo, 7 d, pH 7.5
[8] = mean of exposed fish, Table S13
[9] = wet weight, mean of six fish (RSD %), 7 d exposure, Q10, Q14 below LOQ

Q: With CCCCCCCCCCCCCN [P13, tridecylamine] as the compound, how does the Concentration in gills [1, 6] read?
A: 17 800 (12) ng g^–1

Q: And the “Concentration in liver” value [1, 6]?
A: 50 000 (26) ng g^–1

Q: What about the “Concentration in skin” value [1, 6] of the same compound?
A: 2400 (19) ng g^–1

Q: What about the “Concentration in blood” value [1, 7] of the same compound?
A: 540 (12) ng g^–1

Q: What about the “Concentration in muscle” value [1, 7] of the same compound?
A: 530 (16) ng g^–1

Q: And the “Concentration in skin, per surface area” value [1, 7]?
A: 195 ng cm-2

Q: What about the “Gill-water distribution coefficient (DG-W)” value [2] of the same compound?
A: 62 mLcm-2

Q: What about the “Mucus-water distribution coefficient (DMuc-W)” value [2] of the same compound?
A: 25 mL cm-2

Q: What about the “Apparent bioconcentration factor (BCFapp)” value [3] of the same compound?
A: 490 L kg-1 wet weight

Q: And the “Log KMW,C (membrane-water partition coefficient of the charged form), extrapolated” value [4]?
A: 6.16

Q: Which results are given for CCCCCCCCCCCCCCCCN [P16, hexadecylamine]?
A: Concentration in gills [1, 6]: 8700 (15) ng g^–1; Concentration in liver [1, 6]: 5500 (10) ng g^–1; Concentration in skin [1, 6]: 420 (25) ng g^–1; Concentration in blood [1, 7]: 130 (19) ng g^–1; Concentration in muscle [1, 7]: 111 (22) ng g^–1; Concentration in skin, per surface area [1, 7]: 30 ng cm-2; Log KMW,C (membrane-water partition coefficient of the charged form), extrapolated [4]: 7.90

Q: Which results are given for CCCCCCCCCN(C)C [T9, N,N-dimethylnonylamine]?
A: Concentration in blood ([1]; exposed fish #1): 305 ng/g; Concentration in gills ([1]; exposed fish #1): 1126 ng/g; Concentration in gills, surface area-normalized ([1]; exposed fish #1): 15.7 ng cm-2; Concentration in liver ([1]; exposed fish #1): 3588 ng/g; Concentration in mucus ([1]; exposed fish #1): 19 ng cm-2; Concentration in muscle ([1]; exposed fish #1): 173 ng/g; Concentration in skin, per surface area ([1]; exposed fish #1): 48 ng cm-2; Concentration in blood ([1]; exposed fish #2): 334 ng/g; Concentration in gills ([1]; exposed fish #2): 1320 ng/g; Concentration in gills, surface area-normalized ([1]; exposed fish #2): 17.4 ng cm-2; Concentration in liver ([1]; exposed fish #2): 2592 ng/g; Concentration in mucus ([1]; exposed fish #2): 17 ng cm-2; Concentration in muscle ([1]; exposed fish #2): 173 ng/g; Concentration in skin, per surface area ([1]; exposed fish #2): 32 ng cm-2; Concentration in blood ([1]; exposed fish #3): 475 ng/g; Concentration in gills ([1]; exposed fish #3): 1432 ng/g; Concentration in liver ([1]; exposed fish #3): 2863 ng/g; Concentration in mucus ([1]; exposed fish #3): 15 ng cm-2; Concentration in muscle ([1]; exposed fish #3): 200 ng/g; Concentration in skin, per surface area ([1]; exposed fish #3): 28 ng cm-2; Concentration in blood ([1]; exposed fish #4): 251 ng/g; Concentration in gills ([1]; exposed fish #4): 1130 ng/g; Concentration in gills, surface area-normalized ([1]; exposed fish #4): 17.5 ng cm-2; Concentration in liver ([1]; exposed fish #4): 1593 ng/g; Concentration in mucus ([1]; exposed fish #4): 18 ng cm-2; Concentration in muscle ([1]; exposed fish #4): 146 ng/g; Concentration in skin, per surface area ([1]; exposed fish #4): 32 ng cm-2; Concentration in blood ([1]; exposed fish #5): 323 ng/g; Concentration in gills ([1]; exposed fish #5): 1240 ng/g; Concentration in gills, surface area-normalized ([1]; exposed fish #5): 17.6 ng cm-2; Concentration in liver ([1]; exposed fish #5): 5463 ng/g; Concentration in mucus ([1]; exposed fish #5): 12 ng cm-2; Concentration in muscle ([1]; exposed fish #5): 158 ng/g; Concentration in skin, per surface area ([1]; exposed fish #5): 28 ng cm-2; Concentration in blood ([1]; exposed fish #6): 291 ng/g; Concentration in gills ([1]; exposed fish #6): 869 ng/g; Concentration in gills, surface area-normalized ([1]; exposed fish #6): 11.3 ng cm-2; Concentration in liver ([1]; exposed fish #6): 7230 ng/g; Concentration in mucus ([1]; exposed fish #6): 9 ng cm-2; Concentration in muscle ([1]; exposed fish #6): 111 ng/g; Concentration in skin, per surface area ([1]; exposed fish #6): 19 ng cm-2; Concentration in blood ([1]; mean of exposed fish, Table S10): 330 ng/g; Concentration in muscle ([1]; mean of exposed fish, Table S11): 160 ng/g; Concentration in liver ([1]; mean of exposed fish, Table S12): 3887 ng/g; Concentration in gills [1, 8]: 1186 ng/g; Concentration in gills, surface area-normalized [1, 8]: 15.9 ng cm-2; Concentration in skin, per surface area ([1]; mean of exposed fish, Table S14): 31 ng cm-2; Concentration in mucus ([1]; mean of exposed fish, Table S15): 15 ng cm-2; Concentration in mucus ([1]; methanol rinse normalized to fish surface area, mean of six fish (RSD %)): 15 (24) ng cm^–2; Concentration in gills ([1]; wet weight, mean of fish (RSD %), 7 d exposure): 1190 (16) ng g^–1; Concentration in blood ([1]; wet weight, mean of six fish (RSD % in brackets), 7 d exposure, Q10 below LOQ): 330 (23) ng g^–1; Concentration in liver [1, 9]: 3900 (49) ng g^–1; Concentration in muscle [1, 9]: 160 (19) ng g^–1; Concentration in skin [1, 9]: 390 (40) ng g^–1; Gill-water distribution coefficient (DG-W) [2]: 0.30 mLcm-2; Mucus-water distribution coefficient (DMuc-W) [2]: 0.29 mL cm-2; Apparent bioconcentration factor (BCFapp) [3]: 5.4 L kg-1 wet weight; Log KMW,C (membrane-water partition coefficient of the charged form) [5]: 3.07
